Assays:
FLIP = settings: previously shown (Kim et al., 2002); cited from earlier work
PPC-1 cells = test: MTT viability of PPC-1 cells with extrinsic (CH-11, TRAIL) or intrinsic (VP-16, staurosporine) pathway stimuli; assay type: cell-based, human; settings: CH-11, TRAIL versus VP-16, STS, MTT 24 hours
Method: FIG. 4. Small molecules selectively sensitize to extrinsic pathway stimuli. PPC-1 cells (1×10^4) were seeded overnight in 96 well plates. The next day, cells were treated with increasing concentrations of 6094911, 5809354, 5703229, or 5569100 in combination with increasing concentrations of CH-11 or TRAIL to activate the extrinsic pathway or with VP-16 or staurosporine to activate the intrinsic pathway. Cell viability was measured 24 hours later by MTT assay. Cell viability is expressed as a mean percentage of untreated cells+SD(n=3).
Statistics. Cytotoxicity induced by compounds used in combination with conventional agents (e.g., CH-11, TRAIL, VP-16 and staurosporine) was evaluated for evidence of synergy toxicity by comparing the slopes of the dose-response curves. […]
The 9 compounds identified using anti-FAS antibody screening theoretically could non-specifically sensitize tumor cells to apoptotic stimuli or they could be selective for the extrinsic pathway. […] Accordingly, PPC-1 cells were treated with various concentrations of compounds with or without CH-11, TRAIL, VP-16, or STS, and 24 hours later, cell viability was measured by MTT assays.

Compound | FLIP protein levels (FLIP) | sensitization to extrinsic versus intrinsic pathway stimuli (PPC-1 cells)
CC1(C)CC[C@]2(C(=O)O)CC[C@]3(C)[C@H](C(=O)C=C4[C@@]5(C)C=C(C#N)C(=O)C(C)(C)[C@@H]5CC[C@]43C)[C@@H]2C1 [CDDO, 2-cyano-3,12-dioxooleana-1,9-dien-28-oic acid] | reduce FLIP protein levels | 
C[n+]1ccn2c3c(c4cc(C5CCCCC5)ccc42)CCCc31.[I-] [compound 5362611, 8-Cyclohexyl-3-methyl-5,6-dihydro-4H-pyrazino[3,2,1-jk]carbazol-3-ium; iodide] |  | sensitized to both the death receptor (extrinsic) and mitochondrial pathway (intrinsic) stimuli
